Entries after “also recorded” stand apart in the source; their conditions may differ. One block for each compound: values may come before it. Where a SMILES comes first, the peptide text is derived from it. Bridges are numbered along the chain shown (N, C = ends). [ ]: non-standard residue; d: D form.
Columns and labels:
scHGF = scHGF (Homo sapiens, UniProt P14210, R494E); experiment: BxPC-3 cell survival assay, peptide titrations in the presence of scHGF; format: cell-based; parameters: Full-length recombinant HGF proteins were expressed in 1-liter fermentation cultures of Chinese hamster ovary (CHO) cells; made in house; host or cells: CHO cells (scHGF); conditions: for activation of scHGF / cell survival, in words: peptide plus scHGF
Protocol: (§1) BxPC-3 cells were obtained from ATCC and maintained in cell culture medium (RPMI, 10% FBS (Sigma), 50 U/ml penicillin/50 μg/ml streptomycin, 2 mM glutamine). For the survival assay, cells were plated at 10,000 cells/well in 96 well tissue culture plates (Falcon 353072) in 50 μl assay diluent (RPMI, 0.1% BSA (Sigma) 50 U/ml penicillin/50 μg/ml streptomycin, 2 mM glutamine). Cells were allowed to attach for 1-2 h in a 37° C. CO2 incubator. Human HGF proteins (HGF, scHGF or scHGF plus peptide titrations) were pre-incubated at room temperature in assay diluent. HGF/peptide mixtures were added to cells in microtiter plates in triplicate at 50 μl per well and plates were incubated at 37° C. in a CO2 incubator. Final concentrations of HGF variants were 400 ng/ml and peptide concentrations were titrated accordingly. After 72 h, 25 μl alamar Blue (Serotec, BUF012B) was added to each well and incubate an additional 2 h at 37° C. in a CO2 incubator. Plates were agitated vigorously for 10 min at room temperature, and fluorescence was read at 530-590 nm in a fluorescent plate reader.
Using Bx-PC3 cells, peptide titrations in the presence of scHGF were performed and observed robust activation was seen of scHGF signaling through Met, which reached levels equivalent HGF-induced signaling.
Cellular assays were used to address whether the optimized ZAPtides act as allosteric activators of pro-HGF and stimulate Met signaling in biologically relevant settings of cell survival and migration. […] Importantly, ZAPtides required the presence of scHGF as well as induced […] cell survival that was antagonized by an HGF-blocking anti-Met antibody, each confirming Met pathway selectivity.

Met = experiment: Binding of peptide-zHGF β complex to surface immobilized Met ECD (biolayer interferometry); conditions: read-out: affinity of peptide-zHGF β complex for Met
Protocol: (§2) Met binding assays were carried out utilizing the OctetRed™ biolayer interferometry instrument (ForteBio, Inc.) as reported previously (Landgraf, K. E. et al. (2010) J Biol Chem 285: 40362-72). Biotinylated Met ECD (Sema/PSI-AviTag) was captured on the surface of streptavidin optical sensor tips (SA biosensors, ForteBio, Inc.), and transferred into buffer containing 0.5 μM scHGF β-chain variants in the presence of increasing concentration of indicated peptides. Association and dissociation reactions were monitored to ensure reversible binding between scHGF β and Met. Binding was quantified using the steady-state levels of surface response from the association reaction. Equilibrium constants were derived by least squares fitting of the titration data to a single-site binding equation. Errors reported are ±stdev of n=3 independent experiments.

scHGF β D672N mutant = target: T1, scHGF β D672N mutant (Homo sapiens, UniProt P14210, D672N/R494E); experiment: scHGF β activation/Met binding assay with activation-pocket mutant; conditions: Asp672 to Asn in activation pocket
T1 construct: the scHGF β-chain (residues Asn^479 to Ser^728) contains the R494E mutation; His-tag (C); made in house; host or cells: insect cells (pAcGP67 vector)
Protocol: as §2
However, the partial activity observed with Asp in position 3 was consistent with the fact that the native sequence contains a highly similar Asn residue, but the strained backbone conformation necessary to accommodate the Asp during N-terminal insertion would be energetically unfavorable. […] In addition, the solubility of this peptide variant is enhanced by the polar aspartic acid side chain while maintaining increased activity compared to the IVDG.14 variant.

scHGF β = target: T2, scHGF β (Homo sapiens, UniProt P14210, R494E); experiment: scHGF β activation/Met binding assay (biolayer interferometry); conditions: for Kd: peptide titration with 0.5 μM scHGF β, biotinylated Met ECD on sensor, ±stdev of n=3; for AC50: peptide-dependent activation of zHGF β binding to surface immobilized Met ECD, read-out: apparent activation constant (AC50); for fold more potent than previously described peptides derived from the native HGF β N-terminus: versus Landgraf et al. 2010 peptides; for binding to scHGF β / activation of Met binding, in words: Met-coated sensor
T2 construct: the scHGF β-chain (residues Asn^479 to Ser^728) contains the R494E mutation; His-tag (C); made in house; host or cells: insect cells (pAcGP67 vector)
Protocol: as §2
Based on the finding that the consensus ZAPs contain features consistent with binding and inserting into the activation pocket, several related peptides were synthesized and utilized in a previously established scHGF β activation assay to assess their affinities and ability to active Met binding (Landgraf, K. E. et al. (2010) J Biol Chem 285: 40362-72). Since scHGF β can only weakly interact with the Met Sema-PSI domain compared to the active HGF β form, biolayer interferometry was used in the activation assay to measure the ability of a peptide to directly enhance the binding affinity of scHGF β to a streptavidin sensor surface coated with biotinylated Met (Landgraf, K. E. et al. (2010) J Biol Chem 285: 40362-72). Thus, titration of an activator peptide should result in a significant increase in the surface response signal due to enhanced scHGF β binding to Met.

Peptide solubility = format: physicochemical
BxPC-3 cells = experiment: BxPC-3 cell survival assay, HGF proteins alone; format: cell-based, human
Protocol: as §1, with “Final concentrations of HGF variants were 400 ng/ml and peptide concentrations were titrated accordingly.” left out

T2 sequence (P14210 479-728 R494E): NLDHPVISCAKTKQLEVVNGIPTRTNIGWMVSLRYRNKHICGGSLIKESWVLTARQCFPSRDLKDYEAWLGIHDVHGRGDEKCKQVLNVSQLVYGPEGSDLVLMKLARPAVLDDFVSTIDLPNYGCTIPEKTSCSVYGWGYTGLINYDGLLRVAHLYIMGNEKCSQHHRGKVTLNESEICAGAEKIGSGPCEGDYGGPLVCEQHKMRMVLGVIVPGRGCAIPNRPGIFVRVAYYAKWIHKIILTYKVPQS
T2 sequence (P08581 27-515 partner limits assumed): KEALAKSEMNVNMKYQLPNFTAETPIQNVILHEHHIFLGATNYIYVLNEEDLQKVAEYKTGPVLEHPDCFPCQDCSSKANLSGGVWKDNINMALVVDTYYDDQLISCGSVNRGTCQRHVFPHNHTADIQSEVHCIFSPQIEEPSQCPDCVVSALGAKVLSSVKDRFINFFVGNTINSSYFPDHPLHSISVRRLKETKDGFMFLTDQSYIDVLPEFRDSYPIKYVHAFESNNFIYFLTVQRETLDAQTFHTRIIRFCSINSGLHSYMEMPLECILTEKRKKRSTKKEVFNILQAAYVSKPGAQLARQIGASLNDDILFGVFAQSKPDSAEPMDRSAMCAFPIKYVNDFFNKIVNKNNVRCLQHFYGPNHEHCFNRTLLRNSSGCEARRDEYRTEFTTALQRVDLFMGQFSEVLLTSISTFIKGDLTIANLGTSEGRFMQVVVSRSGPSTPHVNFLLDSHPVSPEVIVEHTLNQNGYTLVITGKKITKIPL
Chain of scHGF (P14210 32-728 R494E): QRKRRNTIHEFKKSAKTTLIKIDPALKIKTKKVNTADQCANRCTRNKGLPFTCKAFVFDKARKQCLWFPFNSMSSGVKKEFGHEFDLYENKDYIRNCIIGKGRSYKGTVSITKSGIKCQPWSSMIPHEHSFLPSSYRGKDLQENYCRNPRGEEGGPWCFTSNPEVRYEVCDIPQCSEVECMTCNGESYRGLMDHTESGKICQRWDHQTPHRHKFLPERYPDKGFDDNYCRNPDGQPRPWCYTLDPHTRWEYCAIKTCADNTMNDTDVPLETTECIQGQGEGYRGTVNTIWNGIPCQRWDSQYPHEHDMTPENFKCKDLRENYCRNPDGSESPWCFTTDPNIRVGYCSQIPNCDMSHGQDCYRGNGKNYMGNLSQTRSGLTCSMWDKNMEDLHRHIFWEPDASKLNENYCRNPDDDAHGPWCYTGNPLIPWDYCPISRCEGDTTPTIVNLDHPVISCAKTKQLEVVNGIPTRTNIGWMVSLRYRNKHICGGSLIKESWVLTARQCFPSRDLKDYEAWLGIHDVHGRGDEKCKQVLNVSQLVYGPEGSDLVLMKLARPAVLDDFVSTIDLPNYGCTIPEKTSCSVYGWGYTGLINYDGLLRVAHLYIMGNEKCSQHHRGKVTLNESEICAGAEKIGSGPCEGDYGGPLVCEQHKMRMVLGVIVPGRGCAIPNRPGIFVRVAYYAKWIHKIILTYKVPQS
T1 sequence (P14210 479-728 R494E/D672N): as the sequence (P14210 479-728 R494E) above, with D194N counted along it

Compound: CC[C@H](C)[C@H](N)C(=O)N[C@H](C(=O)N[C@@H](CC(=O)O)C(=O)NCC(=O)N[C@@H](Cc1ccc(O)cc1)C(=O)N1CCC[C@H]1C(=O)N[C@@H](Cc1c[nH]c2ccccc12)C(=O)N[C@@H](Cc1c[nH]c2ccccc12)C(=O)N[C@@H](CCSC)C(=O)N[C@@H](CC(=O)O)C(=O)N[C@H](C(N)=O)C(C)C)C(C)C [IVDG.14, I V D G Y P W W M D V] (H-IVDGYPWWMDV-NH2; N-terminus assumed)
activation of scHGF / cell survival, in words (scHGF; BxPC-3 cells): partial scHGF signaling activity

Kd (Met): 0.69 µM
fold improvement of AC50 over previous activators (scHGF β): > 90 fold
Kd (scHGF β): 34 ± 3 µM
AC50 (scHGF β): 21 µM
fold more potent than previously described peptides derived from the native HGF β N-terminus (scHGF β): ca. 60 fold
Compound: CC[C@H](C)[C@H](N)C(=O)N[C@H](C(=O)NCC(=O)NCC(=O)N[C@@H](Cc1ccc(O)cc1)C(=O)N1CCC[C@H]1C(=O)N[C@@H](Cc1c[nH]c2ccccc12)C(=O)N[C@@H](Cc1c[nH]c2ccccc12)C(=O)N[C@@H](CCSC)C(=O)N[C@@H](CC(=O)O)C(=O)N[C@H](C(N)=O)C(C)C)C(C)C [IVGG.14, I V G G Y P W W M D V] (H-IVGGYPWWMDV-NH2)
EC50 (scHGF; BxPC-3 cells, serum starvation, 72 h, alamar Blue, read-out: EC50 of activation of scHGF, cell survival): ~20 µM
activity of peptide with scHGF β D672N (scHGF β D672N mutant): lack of activity; also recorded: completely abolished activity

fold more potent than previously described peptides derived from the native HGF β N-terminus (scHGF β): 100 fold
solubility, in words (Peptide solubility): enhanced
Compound: CC[C@H](C)[C@H](N)C(=O)N[C@H](C(=O)N[C@H](CC(=O)O)C(=O)NCC(=O)N[C@@H](Cc1ccc(O)cc1)C(=O)N1CCC[C@H]1C(=O)N[C@@H](Cc1c[nH]c2ccccc12)C(=O)N[C@@H](Cc1c[nH]c2ccccc12)C(=O)N[C@@H](CCSC)C(=O)N[C@@H](CC(=O)O)C(=O)N[C@H](C(N)=O)C(C)C)C(C)C [IVdG.14] (H-IV[dD]GYPWWMDV-NH2)

Kd (scHGF β): 6 ± 1 µM
Compound: CC[C@H](C)[C@H](N)C(=O)N[C@H](C(=O)NCC(=O)NCC(=O)N[C@@H](CC(=O)O)C(=O)N1CCC[C@H]1C(=O)N[C@@H](Cc1ccc(O)cc1)C(=O)N[C@@H](Cc1c[nH]c2ccccc12)C(=O)N[C@H](C(=O)N1CCC[C@H]1C(=O)N[C@@H](Cc1c[nH]cn1)C(=O)N1CCC[C@H]1C(=O)NCC(=O)N[C@@H](CC(=O)O)C(=O)N[C@@H](C)C(N)=O)C(C)C)[C@@H](C)CC [ZAP.01, I I G G D P Y W V P H P G D A] (H-IIGGDPYWVPHPGDA-NH2; N-terminus assumed)
EC50 of scHGF activation, order of magnitude in words (scHGF; Bx-PC3 cell survival, dose-titrations): micromolar

Kd (scHGF β): 59 ± 30 µM
binding to scHGF β / activation of Met binding, in words (scHGF β): significantly impaired
Compound: CC[C@H](C)[C@H](N)C(=O)N[C@H](C(=O)NCC(=O)NCC(=O)N[C@@H](CO)C(=O)N1CCC[C@H]1C(=O)N[C@@H](Cc1ccc(O)cc1)C(=O)N[C@@H](Cc1c[nH]c2ccccc12)C(=O)N[C@@H](CCSC)C(=O)N[C@@H](CC(=O)O)C(=O)N[C@@H](CCCNC(=N)N)C(=O)N[C@@H](CCC(=O)O)C(=O)N[C@@H](CCC(=O)O)C(=O)N[C@@H](CO)C(=O)N[C@H](C(N)=O)[C@@H](C)CC)[C@@H](C)CC [ZAP.03S, I I G G S P Y W M D R E E S I] (H-IIGGSPYWMDREESI-NH2; N-terminus assumed)

Kd (scHGF β): 0.3 ± 0.1 µM
AC50 (scHGF β): 0.3 µM
Compound: CC[C@H](C)[C@H](N)C(=O)N[C@H](C(=O)NCC(=O)NCC(=O)N[C@H]1CSSC[C@@H](C(=O)N[C@H](C(N)=O)[C@@H](C)CC)NC(=O)[C@H](CCC(=O)O)NC(=O)[C@H](CCC(=O)O)NC(=O)[C@H](CCCNC(=N)N)NC(=O)[C@H](CC(=O)O)NC(=O)[C@H](CCSC)NC(=O)[C@H](Cc2c[nH]c3ccccc23)NC(=O)[C@H](Cc2ccc(O)cc2)NC(=O)[C@@H]2CCCN2C1=O)[C@@H](C)CC [ZAP.03] (H-IIGGCPYWMDREECI-NH2; disulfide 5-14)

AC50 (scHGF β): 42 µM
Compound: CC[C@H](C)[C@H](N)C(=O)N[C@H](C(=O)NCC(=O)NCC(=O)N[C@@H](CC(=O)O)C(=O)N[C@@H](Cc1ccc(O)cc1)C(=O)N[C@@H](Cc1c[nH]c2ccccc12)C(=O)N[C@@H](Cc1c[nH]c2ccccc12)C(=O)N[C@H](C(=O)N1CCC[C@H]1C(=O)N[C@H](C(N)=O)[C@@H](C)CC)C(C)C)C(C)C [ZAP.09, IVGGDYWWVPI] (H-IVGGDYWWVPI-NH2; N-terminus assumed)

Compound: G I G G C P Y W M D R E E C I (GIGGCPYWMDREECI) [ZAP.03G]
activation of scHGF / cell survival, in words (scHGF; BxPC-3 cells): dramatically hindered its activity
binding to scHGF β / activation of Met binding, in words (scHGF β): significantly impairs its binding; also recorded: significantly impaired

Compound: G V G G Y P W W M D V (GVGGYPWWMDV) [GVGG.14]
activation of scHGF / cell survival, in words (scHGF; BxPC-3 cells): no detectable activity
binding to scHGF β / activation of Met binding, in words (scHGF β): lack of activity; also recorded: completely abolished activity

Compound: HGF: proteolytically activated two-chain human hepatocyte growth factor, recombinant
stimulation of cell survival by HGF protein alone (BxPC-3 cells; 200 ng/ml (FIG. 11A)): potently stimulate cell survival
stimulation of cell survival by HGF protein alone (BxPC-3 cells; 400 ng/ml (FIG. 6A)): potently stimulate cell survival

binding to scHGF β / activation of Met binding, in words (scHGF β): no detectable binding
Compound: I V D D Y P W W M D V (IVDDYPWWMDV) [IVDD.14]

binding to scHGF β / activation of Met binding, in words (scHGF β): no detectable binding
Compound: I V G D Y P W W M D V (IVGDYPWWMDV) [IVGD.14]
